Test results: US20110015371A1 (Vertex Pharmaceuticals Incorporated, priority 1994, published 2011)
Where a name gives a salt, the structure may show the parent alone. Non-standard residues stand in square brackets, D forms with d. Residues, ends and D or L forms follow the SMILES beside them. *: point of attachment. Hyp = O=C(O)[C@@H]1C[C@@H](O)CN1; Tic = O=C(O)[C@@H]1Cc2ccccc2CN1; Bn = c1ccc(C*)cc1

Assays:
[1] = molecular target: T1, ICE (Homo sapiens, UniProt P29466); assay: Enzyme assay with UV-visible substrate (Succinyl-Tyr-Val-Ala-Asp-pNitroanilide); format: biochemical
T1 sequence (P29466 120-297 limits assumed): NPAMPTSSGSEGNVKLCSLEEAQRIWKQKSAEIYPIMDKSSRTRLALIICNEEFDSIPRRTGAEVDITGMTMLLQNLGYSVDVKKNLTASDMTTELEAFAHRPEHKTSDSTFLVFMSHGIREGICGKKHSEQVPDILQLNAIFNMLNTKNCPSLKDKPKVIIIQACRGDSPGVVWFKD
T1 sequence (P29466 317-404 limits assumed): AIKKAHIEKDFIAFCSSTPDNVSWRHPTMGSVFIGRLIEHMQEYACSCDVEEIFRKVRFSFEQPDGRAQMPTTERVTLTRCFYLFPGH
Description: 1. Enzyme Assay with UV-Visible Substrate
This assay is run using an Succinyl-Tyr-Val-Ala-Asp-pNitroanilide substrate. Synthesis of analogous substrates is described by L. A. Reiter (Int. J. Peptide Protein Res. 43, 87-96 (1994)). The assay mixture contains:
The visible ICE assay is run in a 96-well microtiter plate. Buffer, ICE and DMSO (if inhibitor is present) are added to the wells in the order listed. The components are left to incubate at room temperature for 15 minutes starting at the time that all components are present in all wells. The microtiter plate reader is set to incubate at 37° C. After the 15 minute incubation, substrate is added directly to the wells and the reaction is monitored by following the release of the chromophore (pNA) at 405-603 nm at 37° C. for 20 minutes. A linear fit of the data is performed and the rate is calculated in mOD/min. DMSO is only present during experiments involving inhibitors, buffer is used to make up the volume to 100 μl in the other experiments.
For determination of enzyme inhibition constants (Ki) or the mode of inhibition (competitive, uncompetitive or noncompetitive), the rate data determined in the enzyme assays at varying inhibitor concentrations are computer-fit to standard enzyme kinetic equations (see I. H. Segel, Enzyme Kinetics, Wiley-Interscience, 1975).

[2] = system: Human Peripheral Blood Mononuclear Cells (PBMC) or Enriched Adherent Mononuclear Cells; assay: Cell assay: IL-1β assay with human PBMC or enriched adherent mononuclear cells; format: cell-based; conditions: Example 4 table, LPS-stimulated cells, mature IL-1β in supernatant by ELISA
Source text: IL-1β Assay with a Mixed Population of Human Peripheral Blood Mononuclear Cells (PBMC) or Enriched Adherent Mononuclear Cells
Processing of pre-IL-1S by ICE can be measured in cell culture using a variety of cell sources. Human PBMC obtained from healthy donors provides a mixed population of lymphocyte subtypes and mononuclear cells that produce a spectrum of interleukins and cytokines in response to many classes of physiological stimulators. Adherent mononuclear cells from PBMC provides an enriched source of normal monocytes for selective studies of cytokine production by activated cells.
An initial dilution series of test compound in DMSO or ethanol is prepared, with a subsequent dilution into RPMI-10% FBS media (containing 2 mM L-glutamine, 10 mM HEPES, 50 U and 50 ug/ml pen/strep) respectively to yield drugs at 4× the final test concentration containing 0.4% DMSO or 0.4% ethanol. The final concentration of DMSO is 0.1% for all drug dilutions. A concentration titration which brackets the apparent Ki for a test compound determined in an ICE inhibition assay is generally used for the primary compound screen.
We generally test 5-6 compound dilutions and have performed the cellular component of the assay in duplicate, with duplicate ELISA determinations on each cell culture supernatant.
Buffy coat cells isolated from one pint human blood (yielding 40-45 ml final volume plasma plus cells) are diluted with media to 80 ml and LeukoPREP separation tubes (Becton Dickinson) are each overlaid with 10 ml of cell suspension. After 15 min centrifugation at 1500-1800×g, the plasma/media layer is aspirated and then the mononuclear cell layer is collected with a Pasteur pipette and transferred to a 15 ml conical centrifuge tube (Corning). Media is added to bring the volume to 15 ml, gently mix the cells by inversion and centrifuge at 300×g for 15 min. Resuspend the PBMC pellet in a small volume of media, count cells and adjust to 6×10^6 cells/ml.
For the cellular assay, add 1.0 ml of the cell suspension to each well of a 24-well flat bottom tissue culture plate (Corning), 0.5 ml test compound dilution and 0.5 ml LPS solution (Sigma #L-3012; 20 ng/ml solution prepared in complete RPMI media; final LPS concentration 5 ng/ml). The 0.5 ml additions of test compound and LPS are usually sufficient to mix the contents of the wells. Three control mixtures are run per experiment, with either LPS alone, solvent vehicle control, and/or additional media to adjust the final culture volume to 2.0 ml. The cell cultures are incubated for 16-18 hr at 37° C. in the presence of 5% CO2.
At the end of the incubation period, cells are harvested and transferred to 15 ml conical centrifuge tubes. After centrifugation for 10 min at 200×g, supernatants are harvested and transferred to 1.5 ml Eppendorf tubes. It may be noted that the cell pellet may be utilized for a biochemical evaluation of pre-IL-1S and/or mature IL-1β content in cytosol extracts by western blotting or ELISA with pre-IL-1β specific antisera.
PBMC are isolated and prepared as described above. Media (1.0 ml) is first added to wells followed by 0.5 ml of the PBMC suspension. After a one hour incubation, plates are gently shaken and nonadherent cells aspirated from each well. Wells are then gently washed three times with 1.0 ml of media and final resuspended in 1.0 ml media. The enrichment for adherent cells generally yields 2.5−3.0×10^5 cells per well. The addition of test compounds, LPS, cell incubation conditions and processing of supernatants proceeds as described above.
We have used Quantikine kits (R&D Systems) for measurement of mature IL-1β. Assays are performed according to the manufacturer's directions. Mature IL-1β levels of about 1-3 ng/ml in both PBMC and adherent mononuclear cell positive controls are observed. ELISA assays are performed on 1:5, 1:10 and 1:20 dilutions of supernatants from LPS-positive controls to select the optimal dilution for supernatants in the test panel.

Structure (SMILES)	Ki ([1]; Example 4 table) [nM]	Ki ([1]; Example 6 table) [nM]	further results
O=C[C@H](CC(=O)O)NC(=O)CN(CCc1ccccc1)C(=O)c1ncc(CCCc2ccccc2)[nH]1 [Compound 25, (3S)-(2-{Phenethyl-[5-(3-phenylpropyl)-1H-imidazole-2-carbonyl]amino}acetylamino)-4-oxobutanoic acid trifluoroacetic acid salt]	6200	–	–
CC(C)[C@H](NC(=O)OCc1ccccc1)C(=O)N[C@@H](C)C(=O)N[C@@H](CC(=O)O)C(=O)c1nc2ccccc2o1 [Compound 63, (3S)N-(N-Benzyloxycarbonyl-(S)-valinyl-(S)-alaninyl)-3-amino-4-(2-benzoxazolyl)-4-oxobutanoate]	850	–	IC50 [2]: 4100 nM
O=C[C@H](CC(=O)O)NC(=O)CN1CCCC[C@H](NC(=O)CCc2ccc(O)cc2)C1=O [Compound 92, 3-(S)-(2-(3[3-(S)-(4-Hydroxy-phenyl)-propionylamino]-2-oxo-azepan-1-yl)-acetylamino)-4-oxo-butyric acid]	–	3800	–
O=C[C@H](CC(=O)O)NC(=O)[C@@H]1CS[C@@H]2CCC[C@H](NC(=O)CCc3ccccc3)C(=O)N21 [Compound 141]	–	670	–
CC(C)[C@H](NC(=O)OCc1ccccc1)C(=O)N[C@@H](C)C(=O)N[C@@H](CC(=O)O)C(=O)c1ncco1 [Compound 152]	–	8800	–
CC(C)[C@H](NC(=O)OCc1ccccc1)C(=O)N[C@@H](C)C(=O)N[C@@H](CC(=O)O)C(=O)c1nc(-c2ccccc2)co1 [Compound 153]	–	240	–
CC(=O)N[C@@H](Cc1ccc(O)cc1)C(=O)N[C@H](C(=O)N1CCC[C@H]1C(=O)N[C@@H](CC(=O)O)C(=O)c1ncc(-c2c(Cl)cccc2Cl)o1)C(C)C [Compound 155]	–	23	–
O=C(O)C[C@H](NC(=O)[C@@H]1CCCN1C(=O)c1ncc(CCCc2ccccc2)[nH]1)C(=O)c1ncc(-c2c(Cl)cccc2Cl)o1 [Compound 157]	–	260	–
CC(=O)N[C@H](C(=O)N1C[C@H](OCc2ccccc2)C[C@H]1C(=O)N[C@H](C=O)CC(=O)O)C(C)C [Compound 158] (Ac-Val-[Hyp](Bn)-Asp-aldehyde)	–	1100	–
CC(=O)N[C@@H](Cc1ccc(O)cc1)C(=O)N[C@H](C(=O)N1C[C@H](Oc2ccccc2)CC1C(=O)N[C@@H](CC(=O)O)C(=O)CSCc1ccccc1Cl)C(C)C (stereo partly drawn) [Compound 161]	–	11	–
CC(=O)N[C@@H](Cc1ccc(O)cc1)C(=O)N[C@H](C(=O)N1Cc2ccccc2C[C@H]1C(=O)N[C@H](C=O)CC(=O)O)C(C)C [L, N-[2-(N-Acetyl-tyrosinyl-valinyl)-(S)-1,2,3,4-tetrahydroisoquinoline-3-carbonyl]-3-amino-oxobutanoic acid] (Ac-YV[Tic]D-aldehyde)	–	–	Ki ([1]; Example 2 table): 14 nM

Second part, led by results:

Ki ([1]; Example 4 table) [nM]	Ki ([1]; Example 6 table) [nM]	Structure (SMILES)	further results
970	–	CC(C(=O)N[C@H](C=O)CC(=O)O)n1c(Cc2ccccc2)ccc(NC(=O)CCc2ccccc2)c1=O (mixture of isomers) [Compound 54h, 3(S), N(2(R,S))3-(2-(6-Benzyl-1,2-dihydro-2-oxo-3-(3-phenylpropionyl)amino-1-pyridyl)propionylamino)-4-oxobutanoic acid]	–
35000	–	O=CC(CC(=O)O)NC(=O)C1CCc2ncc(NC(=O)c3ccccc3)c(=O)n21 (single isomer, unassigned) [Compound 7a]	–
1200	–	O=CC(CC(=O)O)NC(=O)C1CCc2ncc(NC(=O)c3ccccc3)c(=O)n21 (single isomer, unassigned) [Compound 7b]	–
19	–	O=C[C@H](CC(=O)O)NC(=O)[C@@H]1CCCN2C(=O)CC[C@H](NC(=O)CCc3ccccc3)C(=O)N12 [Compound 47a, [3S, (1S,9S)]3-(6,10-Dioxo-octahydro-9-(3-phenylpropionylamino)-6H-pyridazino[1,2-a][1,2]diazepine-1-carboxamido)-4-oxobutanoic acid]	IC50 ([2]; Homo sapiens, PBMC): 2100 nM
1200	–	O=C[C@H](CC(=O)O)NC(=O)Cn1c(CCc2ccccc2)ccc(NC(=O)CCc2ccccc2)c1=O [Compound 54c, 3(S)3-(1,2-Dihydro-2-oxo-6-phenethyl-3(3-phenyl-propionyl)amino-1-pyridyl)acetylamino-4-oxobutanoic acid]	IC50 ([2]; Homo sapiens, PBMC): > 19000 nM
900	–	O=C[C@H](CC(=O)O)NC(=O)Cn1c(-c2ccccc2)ccc(NC(=O)CCc2ccccc2)c1=O [Compound 54f, 3(S)3-(1,2-Dihydro-2-oxo-6-phenyl-3-(3-phenyl-propionyl)amino-1-pyridyl)acetylamino-4-oxobutanoic acid]	–
54	–	CC(=O)N[C@@H](Cc1ccc(O)cc1)C(=O)Nc1ccc(Cc2ccccc2)n(CC(=O)N[C@H](C=O)CC(=O)O)c1=O [Compound 54i, 3(S)3-(3-(2-Acetyl-L-tyrosinyl)amino-6-benzyl-1,2-dihydro-2-oxo-1-pyridyl)acetylamino-4-oxobutanoic acid]	IC50 ([2]; Homo sapiens, PBMC): 2400 nM
215	–	O=C[C@H](CC(=O)O)NC(=O)Cn1c(Cc2ccccc2)ccc(NC(=O)CCCc2ccccc2)c1=O [Compound 54l, 3(S)3-(6-Benzyl-1,2-dihydro-2-oxo-3-(4-phenylbutyryl)carbonylamino-1-pyridyl)acetylamino-4-oxobutanoic acid]	IC50 [2]: 7000 nM
–	680	O=C(O)C[C@H](NC(=O)[C@@H]1CCc2ncc(NC(=O)CCc3ccccc3)c(=O)n21)C(=O)c1ncc(-c2c(Cl)cccc2Cl)o1 [Compound 102c, 4-[5-(2,6-Dichloro-phenyl)-oxazol-2-yl]-4-oxo-(3S)-{[4-oxo-3-(3-phenyl-propionylamino)-4,6,7,8-tetrahydro-pyrrolo[1,2-a]pyrimidine-(6S)-carbonyl]-amino}-butyric acid]	–
–	3700	O=C[C@H](CC(=O)O)NC(=O)CN1CCN(Cc2ccccc2)C[C@H](NC(=O)OCc2ccccc2)C1=O [Compound 114b, 3(S)-{2-[4-Benzyl-7-oxo-6(S)—(N-benzyloxycarbonylamino)-[1,4]diazepan-1-yl]-acetylamino}-4-oxo-butyric acid trifluoroacetic acid salt]	–
–	12500	O=C[C@H](CC(=O)O)NC(=O)[C@@H]1CCCN2C(=O)C[C@@H](NC(=O)CCc3ccccc3)C(=O)N12 [Compound 132b]	–
